target: T1, human vasopressin V2 receptor subtype (Homo sapiens, UniProt P30518); test: Vasopressin binding in CHO cell membranes expressing human vasopressin V2 subtype receptors ([3H]arginine vasopressin radioligand binding); settings: @ 100 nM
T1 construct: host or cells: CHO cells, pZeoSV vector
From the text: Vasopressin Binding in Chinese Hamster Ovary Cell Membranes Expressing Human Vasopressin V2 Subtype Receptors
Chinese Hamster Ovary (CHO) cells stably transfected with the human V2 subtype receptors were obtained from M. Thibonnier, Case Western Reserve University School of Medicine, Cleveland, Ohio.
A. Passaging and Amplification of Cells
CHO cells transfected with the human vasopressin V2 subtype receptors obtained from M. Thibonnier (pZeoSV vector) are allowed to grow to confluency (approx. >90%) in T-150 flasks under sterile conditions, in a cell culture medium ofF-12 Nutrient Mixture (HAM) with L-glutamine (Gibco Cat. #11765-054) containing 15 mM HEPES (Gibco Cat. #15630-080), 1% antibiotic/antimycotic (add 5 mL 100×, Gibco Cat. #15240-062 per 500 mL F-12), 250 μg/mL Zeocin (add 1.25 mL of 100 mg/mL Invitrogen R-250-01 per 500 mL F-1 2) and 10% Fetal Bovine Serum (Qualified, heat inactivated, Gibco Cat. #16140-063). The medium is removed by aspiration and the cells washed with 10 mL of Hank's Balanced Salt solution (Gibco Cat. #14175-095). The salt solution is removed by aspiration and the cells trypsinized with 5 mL of trypsin-EDTA (0.05% trypsin, 0.53 mM EDTA-4Na, Gibco Cat. #25300-070) for 1 min. The trypsin is removed by aspiration and the cells dislodged by tapping. Cell Culture medium (e.g. 30 mL for 1:30 split) is immediately added and mixed well to inactivate trypsin. 1 mL of detached cells is added to new culture flasks containing fresh Cell Culture medium (e.g. into 25 mL per T-150 flask), and mixed gently. The cells are incubated at 37° C. in 5% CO2. The medium is changed at 3 to 4 day interval (or as appropriate). The cells grow to confluency (approx. >75%-95%) within 7-8 days. All steps are done under sterile conditions.
The cells are washed twice gently with Hank's Balanced Salt solution (e.g. use 10 mL per T-150 flask). The excess solution is removed and the cells bathed for 15-30 min. in an enzyme-free Cell Dissociation Buffer (e.g. use 8 mL Hank's Based, Gibco Cat. # 13150-016 per T-150 flask) until cells are loosened. The contents are transferred to centrifuge tubes (50 mL) kept in ice bath. All subsequent steps are done at 4° C. The tubes are centrifuged at 300×g for 15 min (1380 rpm on SORVAL, Model RT6000D, using the rotor for 50 mL tubes). The supernatant is discarded and the cells suspended in homogenizing buffer (10 mM Tris-HCl containing 0.25 M sucrose and 1 mM EDTA, pH 7.4) ensuring that the volume of the buffer is about ten times the volume of the cell pellet. The cells are pooled into a centrifuge tube (50 mL) and homogenized with Polytron at setting 6 for 10 sec. The homogenate is transferred into a Potter-Elvjehm homogenizer and homogenized with 3 strokes. The homogenate is centrifuged at 1500×g for 60 min at 4° C. (3100 rpm using SORVAL, model RT6000D, using the rotor for 50 mL tubes). The pellet is discarded. The supernatant is centrifuged at 100,000×g for 60 min. at 4° C. (Beckman L8-80M ultracentrifuge; spin at 37,500 rpm with rotor type 70 Ti for 50 mL tubes; 38,000 rpm with type 80Ti for 15 mL tubes; or 35,800 rpm with rotor type 45Ti). The supernantant is discarded and the pellet suspended in 3 to 4 mL of Tris buffer (50 mM TRIS—HCl, pH 7.4). The protein content is estimated by the Bradford or Lowry method. The volume of the membrane suspension is adjusted with the membrane buffer (50 mM Tris-HCl containing 0.1% BSA and 0.1 mM PMSF) to give 3.0 mg/mL (or as appropriate) of protein. The membranes are aliquoted and stored at −70. ° C.
C. Radioligand Binding Assay
In wells of a 96-well format microtiter plate, is added 90, 110 or 130 μL (to make up a final volume of 200 μL) of assay buffer containing 50 mM of Tris-HCl (pH 7.4), […], 1 mg % aprotinin, 1 mg % leupeptin, 2 mg % 1,10-phenanthroline, 10 mg % trypsin inhibitor, and 0.1 mM PMSF. The inhibitors are added on the day of the experiment. […]

T1 sequence (P30518 whole entry): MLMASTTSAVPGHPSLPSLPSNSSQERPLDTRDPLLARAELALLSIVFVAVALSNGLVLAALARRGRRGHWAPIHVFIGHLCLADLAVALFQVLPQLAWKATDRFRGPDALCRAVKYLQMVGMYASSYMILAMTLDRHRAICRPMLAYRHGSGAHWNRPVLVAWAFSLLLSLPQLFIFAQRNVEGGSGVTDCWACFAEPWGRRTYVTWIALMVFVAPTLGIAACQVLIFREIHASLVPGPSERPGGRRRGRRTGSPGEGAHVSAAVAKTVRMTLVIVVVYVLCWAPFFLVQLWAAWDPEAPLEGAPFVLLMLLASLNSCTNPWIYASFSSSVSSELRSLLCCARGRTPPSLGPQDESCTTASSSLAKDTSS

Compound	inhibition at 0.1 µM [%]
Cc1cc(C(=O)N2Cc3ccc(C(=O)NC(CO)(CO)CO)n3Cc3ccccc32)ccc1-c1ccccc1C(F)(F)F [Example 3, 10-[(2-Methyl-2′-trifluoromethyl-[1,1′-biphenyl]-4-yl)carbonyl]-10,11-dihydro-5H-pyrrolo[2,1-c][1,4]benzodiazepine-3-carboxylic acid (2-hydroxy-1,1-bis-hydroxymethyl-ethyl)-amide]	13
COc1cc2c(cc1OC)N(C(=O)c1ccc(-c3ccccc3C(F)(F)F)c(C)c1)Cc1ccc(C(=O)N(CCO)CCO)n1C2 [Example 19, N,N-Bis(2-Hydroxyethyl)-7,8-dimethoxy-10-{[2-methyl-2′-trifluoromethyl-[1,1′-biphenyl]-4-yl]carbonyl}-10,11-dihydro-5H-pyrrolo[2,1-c][1,4]benzodiazepine-3-carboxamide]	3
COc1cc2c(cc1OC)N(C(=O)c1ccc(-c3ccccc3C(F)(F)F)c(C)c1)Cc1ccc(C(=O)N(C)CC(O)CO)n1C2 (centres unmarked) [Example 18, N-(2,3-Dihydroxypropyl)-7,8-dimethoxy-N-methyl-10-{[2-methyl-2′-trifluoromethyl-[1,1′-biphenyl]-4-yl]carbonyl}-10,11-dihydro-5H-pyrrolo[2,1-c][1,4]benzodiazepine-3-carboxamide]	-5

Results, then the compound that gave them:

inhibition at 0.1 µM [%]	Compound
27	COc1cc(C(=O)N2Cc3ccc(C(=O)N4CCN(CCO)CC4)n3Cc3ccccc32)ccc1-c1ccccc1C [Example 42, [4-(2-Hydroxyethyl)-1-piperazinyl]{10-[(2-methoxy-2′-methyl[1,1′-biphenyl]-4yl)carbonyl]-10,11-dihydro-5H-pyrrolo[2,1-c][1,4]benzodiazepin-3-yl}methanone]
14	Cc1ccccc1-c1ccc(C(=O)N2Cc3ccc(C(=O)N4CCN(CCO)CC4)n3Cc3ccccc32)cc1C [Example 46, {10-[(2,2′-Dimethyl[1,1′-biphenyl]-4-yl)carbonyl]-10,11-dihydro-5H-pyrrolo[2,1-c][1,4]benzodiazepin-3-yl}[4-(2-hydroxyethyl)-1-piperazinyl]methanone]
21	COc1cccc(-c2cc(OC)c(C(=O)N3Cc4ccc(C(=O)N5CCN(CCO)CC5)n4Cc4ccccc43)cc2Cl)c1 [Example 49, {10-[(6-Chloro-3,3′-dimethoxy[1,1′-biphenyl]-4-yl)carbonyl]-10,11-dihydro-5H-pyrrolo[2,1-c][1,4]benzodiazepin-3-yl}[4-(2-hydroxyethyl)-1-piperazinyl]methanone]
27	COc1ccccc1-c1ccc(C(=O)N2Cc3ccc(C(=O)N4CCN(CCO)CC4)n3Cc3ccccc32)cc1OC [Example 43, {10-[(2,2′-Dimethoxy[1,1′-biphenyl]-4-yl)carbonyl]-10,11-dihydro-5H-pyrrolo[2,1-c][1,4]benzodiazepin-3-yl}[4-(2-hydroxyethyl)-1-piperazinyl]methanone]
35	COc1cc(C(=O)N2Cc3ccc(C(=O)N4CCN(CCO)CC4)n3Cc3ccccc32)ccc1-c1cccc2ccccc12 [Example 41, [4-(2-Hydroxyethyl)-1-piperazinyl]{10-[3-methoxy-4-(1-naphthyl)benzoyl]-10,11-dihydro-5H-pyrrolo[2,1-c][1,4]benzodiazepin-3-yl}methanone]
25	COc1ccccc1-c1ccc(C(=O)N2Cc3ccc(C(=O)N4CCN(CCO)CC4)n3Cc3ccccc32)cc1C [Example 40, [4-(2-Hydroxyethyl)-1-piperazinyl]{10-[(2′-methoxy-2-methyl[1,1′-biphenyl]-4yl)carbonyl]-10,11-dihydro-5H-pyrrolo[2,1-c][1,4]benzodiazepin-3-yl}methanone]

same assay, conditions: value printed in parentheses

IC50 [nM]	Compound
311	COc1cc(C(=O)N2Cc3ccc(C(=O)N(C)CC(O)CO)n3Cc3ccccc32)ccc1-c1ccccc1C(F)(F)F (centres unmarked) [Example 21, N-(2,3-Dihydroxypropyl)-10-{[2-methoxy-2′-trifluoromethyl-[1,1′-biphenyl]-4-yl]carbonyl}-N-methyl-10,11-dihydro-5H-pyrrolo[2,1-c][1,4]benzodiazepine-3-carboxamide]
610	Cc1cc(C(=O)N2Cc3ccc(C(=O)N(CCO)CCO)n3Cc3ccccc32)ccc1-c1ccccc1C(F)(F)F [Example 1, 10-[(2-Methyl-2′-trifluoromethyl-[1,1′-biphenyl]-4-yl)carbonyl]-10,11-dihydro-5H-pyrrolo[2,1-c][1,4]benzodiazepine-3-carboxylic acid bis-(2-hydroxy-ethyl)-amide]
763	Cc1cc(C(=O)N2Cc3ccc(C(=O)N(C)C[C@@H]4OC(=O)O[C@H]4[C@H](O)[C@H]4COC(=O)O4)n3Cc3ccccc32)ccc1-c1ccccc1C(F)(F)F [Example 12, N-[((4S,5S)-5-{(R)-Hydroxy[(4R)-2-oxo-1,3-dioxolan-4-yl]methyl}-2-oxo-1,3-dioxolan-4-yl)methyl]-N-methyl-10-{[2-methyl-2′-(trifluoromethyl)[1,1′-biphenyl]-4-yl]carbonyl}-10,11-dihydro-5H-pyrrolo[2,1-c]benzodiazepine-3-carboxamide]
144	COc1ccccc1-c1ccc(C(=O)N2Cc3ccc(C(=O)N(C)C[C@H](O)[C@@H](O)[C@H](O)[C@H](O)CO)n3Cc3ccccc32)cc1C [Example 17, 10-[(2′-Methoxy-2-methyl-[1,1′-biphenyl]-4-yl)carbonyl]-10,11-dihydro-5H-pyrrolo[2,1-c][1,4]benzodiazepine-3-carboxylic acid methyl-[(2S,3R,4R, 5R)-2,3,4,5,6-pentahydroxy-hexyl)-amide]
11.3	Cc1ccc(-c2ccc(C(=O)N3Cc4ccc(C(=O)N(C)CC(O)CO)n4Cc4ccccc43)cc2)c2ccccc12 (centres unmarked) [Example 26, 10-{[4-(4-Methyl-naphthalen-1-yl)phenyl]carbonyl}-10,11-dihydro-5H-pyrrolo[2,1-c][1,4]benzodiazepine-3-carboxylic acid (2,3-dihydroxy-propyl)-N-methylamide]
356	Cc1cc(C(=O)N2Cc3ccc(C(=O)N(C)CC4COC(=O)O4)n3Cc3ccccc32)ccc1-c1ccccc1C(F)(F)F (centres unmarked) [Example 11, 10-[(2-Methyl-2′-trifluoromethyl-[1,1′-biphenyl]-4-yl)carbonyl]-10,11-dihydro-5H-pyrrolo[2,1-c][1,4]benzodiazepine-3-carboxylic acid methyl-[(2-oxo-[1,3]dioxolan-4-yl)methyl]-amide]
227	COc1cc(-c2ccccc2C(F)(F)F)c(Cl)cc1C(=O)N1Cc2ccc(C(=O)N(C)C[C@H](O)[C@@H](O)[C@H](O)[C@H](O)CO)n2Cc2ccccc21 [Example 20, 10-{[6-Chloro-3-methoxy-2′-trifluoromethyl-[1,1′-biphenyl]-4-yl]carbonyl}-N-methyl-N-[(2S,3R,4R,5R)-2,3,4,5,6-pentahydroxyhexyl]-10,11-dihydro-5H-pyrrolo[2,1-c][1,4]benzodiazepine-3-carboxamide]
205	COc1ccccc1-c1ccc(C(=O)N2Cc3ccc(C(=O)N(C)CC(O)CO)n3Cc3ccccc32)cc1C (centres unmarked) [Example 14, 10-[(2′-Methoxy-2-methyl-[1,1′-biphenyl]-4-yl)carbonyl]-10,11-dihydro-5H-pyrrolo[2,1-c][1,4]benzodiazepine-3-carboxylic acid (2,3-dihydroxy-propyl)-methyl-amide]

Reference: patent US6900200B2, “Tricyclic hydroxy carboxamides and derivatives thereof tocolytic oxytocin receptor antagonists” (Wyeth, priority 2001, dated 2005)
